Measurements reported in paper PMC9611727, “Optimization of a Novel Mandelamide-Derived Pyrrolopyrimidine Series of PERK Inhibitors” (Pharmaceutics, 2022).

Columns and labels:
Assay in all cases: scanMAX kinase panel
Assay type in all cases: binding
Details in all cases: read-out: % Control; for remaining binding at 1 µM: 1000 nM
[1] = molecular target: T1, CDK11 (Homo sapiens, UniProt Q9BWU1)
T1 construct: purchased DiscoverX scanMAX
Text: (§1) Supplemental Table S2. scanMAXSM Kinome Assay Results. Complete tabulated data of all 468 kinases from the panel, including
(§2) 403 wild-type and 65 mutant isoforms. […] Cmpd 11 and Cmpd 24

[2] = molecular target: T2, EPHB6 (Homo sapiens, UniProt O15197)
T2 construct: purchased DiscoverX scanMAX
T2 sequence (O15197 32-1021): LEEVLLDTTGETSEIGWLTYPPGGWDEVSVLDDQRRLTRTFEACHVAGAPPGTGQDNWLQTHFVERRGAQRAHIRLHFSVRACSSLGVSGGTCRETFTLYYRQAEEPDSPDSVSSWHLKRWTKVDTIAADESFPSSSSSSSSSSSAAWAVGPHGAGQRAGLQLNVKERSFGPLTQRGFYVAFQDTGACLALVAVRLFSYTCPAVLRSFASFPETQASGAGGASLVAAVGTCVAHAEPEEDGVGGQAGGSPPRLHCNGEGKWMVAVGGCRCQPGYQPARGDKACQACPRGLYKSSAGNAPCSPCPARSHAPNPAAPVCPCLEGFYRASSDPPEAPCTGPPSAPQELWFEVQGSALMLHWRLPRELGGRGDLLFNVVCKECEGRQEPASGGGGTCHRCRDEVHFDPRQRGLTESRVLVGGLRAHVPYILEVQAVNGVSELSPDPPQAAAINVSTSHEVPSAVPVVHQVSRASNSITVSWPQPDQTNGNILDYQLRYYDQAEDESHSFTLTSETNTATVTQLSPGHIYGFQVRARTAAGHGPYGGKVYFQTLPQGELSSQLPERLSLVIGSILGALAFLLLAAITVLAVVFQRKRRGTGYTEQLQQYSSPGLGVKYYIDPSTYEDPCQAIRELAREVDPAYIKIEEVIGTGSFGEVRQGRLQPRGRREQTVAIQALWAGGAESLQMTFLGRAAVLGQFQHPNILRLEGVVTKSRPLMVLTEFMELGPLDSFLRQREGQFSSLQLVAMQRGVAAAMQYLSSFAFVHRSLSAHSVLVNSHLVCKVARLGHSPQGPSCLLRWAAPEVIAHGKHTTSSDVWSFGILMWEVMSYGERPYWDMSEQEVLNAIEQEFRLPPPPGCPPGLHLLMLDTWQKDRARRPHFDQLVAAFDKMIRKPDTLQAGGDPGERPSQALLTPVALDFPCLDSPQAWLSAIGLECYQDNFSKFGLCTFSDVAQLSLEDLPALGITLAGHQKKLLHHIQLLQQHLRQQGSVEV
Text: as §1, §2

[3] = molecular target: T3, FLT3(D835Y) (Homo sapiens, UniProt P36888, D835Y)
T3 construct: purchased DiscoverX scanMAX
T3 sequence (P36888 27-993 D835Y): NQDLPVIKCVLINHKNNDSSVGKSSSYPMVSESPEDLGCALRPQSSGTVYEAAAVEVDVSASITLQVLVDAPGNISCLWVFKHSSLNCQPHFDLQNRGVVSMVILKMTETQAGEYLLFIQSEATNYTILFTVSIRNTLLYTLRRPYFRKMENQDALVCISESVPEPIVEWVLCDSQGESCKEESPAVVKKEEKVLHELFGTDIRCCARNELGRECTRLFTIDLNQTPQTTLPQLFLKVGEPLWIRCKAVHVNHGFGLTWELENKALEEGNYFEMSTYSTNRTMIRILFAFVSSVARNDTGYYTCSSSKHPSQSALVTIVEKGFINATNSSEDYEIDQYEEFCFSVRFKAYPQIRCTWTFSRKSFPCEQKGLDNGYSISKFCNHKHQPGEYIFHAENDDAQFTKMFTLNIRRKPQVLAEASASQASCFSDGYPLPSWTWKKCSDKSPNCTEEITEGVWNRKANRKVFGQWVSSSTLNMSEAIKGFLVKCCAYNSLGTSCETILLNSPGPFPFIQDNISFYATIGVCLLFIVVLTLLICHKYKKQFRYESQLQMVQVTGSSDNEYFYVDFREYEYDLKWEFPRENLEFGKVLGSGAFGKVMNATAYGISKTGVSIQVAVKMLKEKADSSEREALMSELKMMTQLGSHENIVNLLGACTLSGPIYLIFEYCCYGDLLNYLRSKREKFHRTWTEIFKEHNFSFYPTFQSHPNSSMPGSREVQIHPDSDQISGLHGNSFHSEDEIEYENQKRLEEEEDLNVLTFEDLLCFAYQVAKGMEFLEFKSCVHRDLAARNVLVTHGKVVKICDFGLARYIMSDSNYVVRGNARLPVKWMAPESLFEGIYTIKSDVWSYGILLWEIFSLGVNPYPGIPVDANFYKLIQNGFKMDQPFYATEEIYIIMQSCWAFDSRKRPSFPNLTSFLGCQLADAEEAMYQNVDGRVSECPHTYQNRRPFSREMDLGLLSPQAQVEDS
Text: as §1, §2

[4] = molecular target: T4, PAK3 (Homo sapiens, UniProt O75914)
T4 construct: purchased DiscoverX scanMAX
T4 sequence (O75914 whole entry): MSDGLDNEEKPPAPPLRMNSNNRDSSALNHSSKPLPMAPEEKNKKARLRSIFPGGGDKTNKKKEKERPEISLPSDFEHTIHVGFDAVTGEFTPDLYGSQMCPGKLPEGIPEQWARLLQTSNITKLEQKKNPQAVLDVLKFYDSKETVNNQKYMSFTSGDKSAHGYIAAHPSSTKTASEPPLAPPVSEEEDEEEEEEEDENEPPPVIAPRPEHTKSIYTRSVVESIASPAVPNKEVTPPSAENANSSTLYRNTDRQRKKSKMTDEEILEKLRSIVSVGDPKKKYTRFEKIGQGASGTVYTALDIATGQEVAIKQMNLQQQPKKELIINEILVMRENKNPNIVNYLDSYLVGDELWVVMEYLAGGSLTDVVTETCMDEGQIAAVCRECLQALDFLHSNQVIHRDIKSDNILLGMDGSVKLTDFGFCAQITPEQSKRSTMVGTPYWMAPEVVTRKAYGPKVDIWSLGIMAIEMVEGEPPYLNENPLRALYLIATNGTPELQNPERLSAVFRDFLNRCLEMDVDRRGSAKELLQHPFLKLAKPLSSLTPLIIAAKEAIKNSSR
Text: as §1, §2

[5] = molecular target: T5, RIPK2 (Homo sapiens, UniProt O43353)
T5 construct: purchased DiscoverX (scanMAX panel)
T5 sequence (O43353 whole entry): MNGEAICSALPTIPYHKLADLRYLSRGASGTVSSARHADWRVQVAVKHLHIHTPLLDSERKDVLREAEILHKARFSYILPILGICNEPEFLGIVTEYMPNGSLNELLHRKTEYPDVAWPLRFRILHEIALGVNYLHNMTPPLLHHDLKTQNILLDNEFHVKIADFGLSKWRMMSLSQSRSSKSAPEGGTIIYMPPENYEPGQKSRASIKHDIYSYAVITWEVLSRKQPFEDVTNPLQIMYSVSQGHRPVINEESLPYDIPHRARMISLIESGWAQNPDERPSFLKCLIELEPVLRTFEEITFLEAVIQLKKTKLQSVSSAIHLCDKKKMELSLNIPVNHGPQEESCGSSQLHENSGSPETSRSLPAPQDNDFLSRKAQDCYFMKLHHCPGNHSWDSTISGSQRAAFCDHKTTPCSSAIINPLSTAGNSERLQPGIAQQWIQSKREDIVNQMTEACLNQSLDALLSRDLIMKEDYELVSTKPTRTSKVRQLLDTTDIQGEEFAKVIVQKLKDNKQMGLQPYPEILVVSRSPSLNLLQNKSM
Text: as §1, §2

[6] = molecular target: T6, TRKC (Homo sapiens, UniProt Q16288)
T6 construct: purchased DiscoverX (scanMAX panel)
T6 sequence (Q16288 32-839): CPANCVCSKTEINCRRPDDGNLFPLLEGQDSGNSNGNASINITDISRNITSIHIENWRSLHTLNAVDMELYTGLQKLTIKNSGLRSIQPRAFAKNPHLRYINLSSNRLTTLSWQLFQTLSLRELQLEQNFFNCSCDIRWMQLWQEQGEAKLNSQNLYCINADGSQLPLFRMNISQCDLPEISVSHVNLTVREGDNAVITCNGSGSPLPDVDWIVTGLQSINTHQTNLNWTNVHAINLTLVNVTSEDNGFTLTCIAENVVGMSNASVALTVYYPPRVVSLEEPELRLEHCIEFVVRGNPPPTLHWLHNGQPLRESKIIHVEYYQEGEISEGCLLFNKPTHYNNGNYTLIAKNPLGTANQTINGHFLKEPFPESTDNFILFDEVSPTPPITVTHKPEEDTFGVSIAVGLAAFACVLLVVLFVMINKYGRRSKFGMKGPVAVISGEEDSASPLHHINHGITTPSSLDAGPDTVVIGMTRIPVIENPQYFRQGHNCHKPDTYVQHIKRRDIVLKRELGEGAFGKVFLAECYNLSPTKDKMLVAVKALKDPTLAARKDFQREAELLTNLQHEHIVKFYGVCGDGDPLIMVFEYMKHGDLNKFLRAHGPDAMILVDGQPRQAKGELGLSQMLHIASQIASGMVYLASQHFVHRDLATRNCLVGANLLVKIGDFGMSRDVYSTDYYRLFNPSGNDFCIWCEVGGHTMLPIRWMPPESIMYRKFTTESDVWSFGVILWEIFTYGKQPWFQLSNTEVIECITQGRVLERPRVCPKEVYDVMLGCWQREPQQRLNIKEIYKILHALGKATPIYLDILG
Text: as §1, §2

[7] = molecular target: T7, AURKB (Homo sapiens, UniProt Q96GD4)
T7 construct: purchased DiscoverX scanMAX
T7 sequence (Q96GD4 whole entry): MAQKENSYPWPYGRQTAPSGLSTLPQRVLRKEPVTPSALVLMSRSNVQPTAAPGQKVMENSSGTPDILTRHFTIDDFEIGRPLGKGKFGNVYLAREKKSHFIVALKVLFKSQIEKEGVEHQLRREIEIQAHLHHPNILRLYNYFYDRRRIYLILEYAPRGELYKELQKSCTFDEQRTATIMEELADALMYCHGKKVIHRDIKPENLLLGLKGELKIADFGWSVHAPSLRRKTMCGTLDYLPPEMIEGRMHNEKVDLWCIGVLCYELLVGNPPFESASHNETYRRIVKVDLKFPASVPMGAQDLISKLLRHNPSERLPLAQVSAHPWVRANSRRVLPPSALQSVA
Text: as §1, §2

T1 sequence (Q9BWU1 whole entry): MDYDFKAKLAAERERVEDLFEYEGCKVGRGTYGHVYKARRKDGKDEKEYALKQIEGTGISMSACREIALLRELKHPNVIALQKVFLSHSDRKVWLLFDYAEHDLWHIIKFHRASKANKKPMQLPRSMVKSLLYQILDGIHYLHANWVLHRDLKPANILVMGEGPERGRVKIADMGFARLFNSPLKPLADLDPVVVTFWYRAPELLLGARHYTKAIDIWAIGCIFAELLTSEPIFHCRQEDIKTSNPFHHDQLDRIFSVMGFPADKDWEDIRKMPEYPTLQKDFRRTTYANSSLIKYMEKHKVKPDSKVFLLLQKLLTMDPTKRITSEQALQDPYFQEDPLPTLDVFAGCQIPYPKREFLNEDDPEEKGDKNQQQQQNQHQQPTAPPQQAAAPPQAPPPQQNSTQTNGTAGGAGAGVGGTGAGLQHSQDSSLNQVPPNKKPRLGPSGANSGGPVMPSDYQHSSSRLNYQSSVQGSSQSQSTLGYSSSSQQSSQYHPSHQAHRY

Compound | remaining binding at 1 µM [1] | remaining binding at 1 µM [2] | remaining binding at 1 µM [3] | remaining binding at 1 µM [4] | remaining binding at 1 µM [5] | remaining binding at 1 µM [6] | remaining binding at 1 µM [7] | remaining binding at 0.1 µM ([1]; 100 nM) | remaining binding at 0.1 µM ([2]; 100 nM) | remaining binding at 0.1 µM ([3]; 100 nM) | remaining binding at 0.1 µM ([4]; 100 nM) | remaining binding at 0.1 µM ([5]; 100 nM) | remaining binding at 0.1 µM ([6]; 100 nM) | remaining binding at 0.1 µM ([7]; 100 nM)
Cc1nc(N)c2c(-c3ccc(NC(=O)[C@H](O)c4cccc(F)c4)cc3C)cn(C)c2n1 [Compound 24] | 89% | 100% | 96% | 100% | 100% | 79% | 90% |  |  |  |  |  |  | 
Cc1cc(NC(=O)[C@H](O)c2cccc(F)c2)ccc1-c1cn(C)c2ncnc(N)c12 [Compound 11, (R)-N-(4-(4-amino-7-methyl-7H-pyrrolo[2,3-d]pyrimidin-5-yl)-3-methylphenyl)-2-(3-fluorophenyl)-2-hydroxy acetamide] | 1% | 2.6% | 80% | 36% | 15% | 9.5% | 24% |  |  |  |  |  |  | 
Cc1nc(N)c2c(-c3ccc(NC(=O)[C@H](O)c4cccc(C(F)(F)F)c4)cc3C)cn(C)c2n1 [Compound 26] | 8.2% | 48% | 35% | 31% | 43% | 10% | 70% | 89% | 94% | 88% | 97% | 91% | 100% | 81%
